# Results: ChEMBL document CHEMBL1201862, “PubChem BioAssay data set” (2004)
#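 1) Cells in 96-well plates. 2) Compound, 48 h, 5 concentrations. 3) Linear interpolation between surrounding doses. 4) Unreached endpoint = highest concentration. GI50: concentration for 50% inhibition of growth.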 Activity calls are given as the source filed them. Rule as the data show it: active = GI50 up to about 1.1 µM and inactive = higher.
# Key:
# Assay in all cases: NCI tumour cell line growth inhibition, 48 h
# 786-0 = tested on: 786-0
# A498 = tested on: A498
# A549 = tested on: A549
# ACHN = tested on: ACHN
# CCRF-CEM = tested on: CCRF-CEM
# COLO 205 = tested on: COLO 205
# DLD-1 = tested on: DLD-1
# DMS-114 = tested on: DMS-114
# DMS-273 = tested on: DMS-273
# EKVX = tested on: EKVX
# HCC 2998 = tested on: HCC 2998
# HCT-116 = tested on: HCT-116
# HCT-15 = tested on: HCT-15
# HL-60 = tested on: HL-60
# HOP-18 = tested on: HOP-18
# HOP-62 = tested on: HOP-62
# HT-29 = tested on: HT-29
# IGROV-1 = tested on: IGROV-1
# K562 = tested on: K562
# KM-20L2 = tested on: KM-20L2
# KM12 = tested on: KM12
# LOX IMVI = tested on: LOX IMVI
# LXFL 529 = tested on: LXFL 529
# M14 = tested on: M14
# M19-MEL = tested on: M19-MEL
# MOLT-4 = tested on: MOLT-4
# Malme-3M = tested on: Malme-3M
# NCI-H226 = tested on: NCI-H226
# NCI-H23 = tested on: NCI-H23
# NCI-H460 = tested on: NCI-H460
# NCI-H522 = tested on: NCI-H522
# OVCAR-3 = tested on: OVCAR-3
# OVCAR-4 = tested on: OVCAR-4
# OVCAR-5 = tested on: OVCAR-5
# OVCAR-8 = tested on: OVCAR-8
# RPMI-8226 = tested on: RPMI-8226
# RXF 393 = tested on: RXF 393
# RXF 631 = tested on: RXF 631
# SF-268 = tested on: SF-268
# SF-295 = tested on: SF-295
# SF-539 = tested on: SF-539
# SK-MEL-28 = tested on: SK-MEL-28
# SK-MEL-5 = tested on: SK-MEL-5
# SK-OV-3 = tested on: SK-OV-3
# SN12C = tested on: SN12C
# SNB-19 = tested on: SNB-19
# SNB-78 = tested on: SNB-78
# SR = tested on: SR
# SW-620 = tested on: SW-620
# TK-10 = tested on: TK-10
# U-251 = tested on: U-251
# UACC-257 = tested on: UACC-257
# UACC-62 = tested on: UACC-62
# UO-31 = tested on: UO-31
# CAKI-1 = tested on: CAKI-1
# HOP-92 = tested on: HOP-92
# SK-MEL-2 = tested on: SK-MEL-2
# SNB-75 = tested on: SNB-75
structure (smiles),measurement,setting,value
COc1ccc(-c2cc(-c3ccccc3)c(C#N)c(=O)n2C2OC(CO)C(O)C(O)C2O)cc1 (stereo not given),GI50,786-0,> 100 µM (inactive)
same,GI50,A498,> 100 µM (inactive)
same,GI50,A549,> 100 µM (inactive)
same,GI50,ACHN,> 100 µM (inactive)
same,GI50,CCRF-CEM,> 100 µM (inactive)
same,GI50,COLO 205,> 100 µM (inactive)
same,GI50,DLD-1,> 100 µM (inactive)
same,GI50,DMS-114,> 100 µM (inactive)
same,GI50,DMS-273,> 100 µM (inactive)
same,GI50,EKVX,> 100 µM (inactive)
same,GI50,HCC 2998,> 100 µM (inactive)
same,GI50,HCT-116,> 100 µM (inactive)
same,GI50,HCT-15,> 100 µM
same,GI50,HL-60,> 100 µM (inactive)
same,GI50,HOP-18,> 100 µM (inactive)
same,GI50,HOP-62,> 100 µM (inactive)
same,GI50,HT-29,> 100 µM (inactive)
same,GI50,IGROV-1,> 100 µM (inactive)
same,GI50,K562,> 100 µM (inactive)
same,GI50,KM-20L2,> 100 µM (inactive)
same,GI50,KM12,> 100 µM (inactive)
same,GI50,LOX IMVI,> 100 µM (inactive)
same,GI50,LXFL 529,> 100 µM (inactive)
same,GI50,M14,> 100 µM (inactive)
same,GI50,M19-MEL,> 100 µM (inactive)
same,GI50,MOLT-4,> 100 µM (inactive)
same,GI50,Malme-3M,> 100 µM (inactive)
same,GI50,NCI-H226,> 100 µM (inactive)
same,GI50,NCI-H23,> 100 µM (inactive)
same,GI50,NCI-H460,> 100 µM (inactive)
same,GI50,NCI-H522,> 100 µM (inactive)
same,GI50,OVCAR-3,> 100 µM (inactive)
same,GI50,OVCAR-4,> 100 µM (inactive)
same,GI50,OVCAR-5,> 100 µM (inactive)
same,GI50,OVCAR-8,> 100 µM (inactive)
same,GI50,RPMI-8226,> 100 µM (inactive)
same,GI50,RXF 393,> 100 µM (inactive)
same,GI50,RXF 631,> 100 µM (inactive)
same,GI50,SF-268,> 100 µM (inactive)
same,GI50,SF-295,> 100 µM (inactive)
same,GI50,SF-539,> 100 µM (inactive)
same,GI50,SK-MEL-28,> 100 µM (inactive)
same,GI50,SK-MEL-5,> 100 µM (inactive)
same,GI50,SK-OV-3,> 100 µM (inactive)
same,GI50,SN12C,> 100 µM (inactive)
same,GI50,SNB-19,> 100 µM (inactive)
same,GI50,SNB-78,> 100 µM (inactive)
same,GI50,SR,> 100 µM (inactive)
same,GI50,SW-620,> 100 µM (inactive)
same,GI50,TK-10,> 100 µM (inactive)
same,GI50,U-251,> 100 µM (inactive)
same,GI50,UACC-257,> 100 µM (inactive)
same,GI50,UACC-62,> 100 µM (inactive)
same,GI50,UO-31,> 100 µM (inactive)
Cc1cc(C)c(/C=N/NS(=O)(=O)c2ccccc2)c(C)c1,GI50,786-0,> 100 µM (inactive)
same,GI50,A498,56.1 µM (inactive)
same,GI50,A549,> 100 µM (inactive)
same,GI50,ACHN,> 100 µM (inactive)
same,GI50,CAKI-1,76.6 µM (inactive)
same,GI50,CCRF-CEM,62.8 µM (inactive)
same,GI50,COLO 205,> 100 µM (inactive)
same,GI50,DLD-1,91.8 µM (inactive)
same,GI50,DMS-114,60.4 µM (inactive)
same,GI50,DMS-273,> 100 µM (inactive)
same,GI50,EKVX,62.7 µM (inactive)
same,GI50,HCC 2998,> 100 µM (inactive)
same,GI50,HCT-116,> 100 µM (inactive)
same,GI50,HCT-15,> 100 µM
same,GI50,HL-60,91.6 µM (inactive)
same,GI50,HOP-18,59 µM (inactive)
same,GI50,HOP-62,> 100 µM (inactive)
same,GI50,HOP-92,36.3 µM (inactive)
same,GI50,HT-29,> 100 µM (inactive)
same,GI50,IGROV-1,> 100 µM (inactive)
same,GI50,K562,94.4 µM (inactive)
same,GI50,KM-20L2,> 100 µM (inactive)
same,GI50,KM12,> 100 µM (inactive)
same,GI50,LOX IMVI,> 100 µM (inactive)
same,GI50,LXFL 529,62.2 µM (inactive)
same,GI50,M14,> 100 µM (inactive)
same,GI50,M19-MEL,> 100 µM (inactive)
same,GI50,MOLT-4,44.7 µM (inactive)
same,GI50,Malme-3M,> 100 µM (inactive)
same,GI50,NCI-H226,> 100 µM (inactive)
same,GI50,NCI-H23,54.3 µM (inactive)
same,GI50,NCI-H460,59.4 µM (inactive)
same,GI50,OVCAR-3,47.6 µM (inactive)
same,GI50,OVCAR-4,> 100 µM (inactive)
same,GI50,OVCAR-5,> 100 µM (inactive)
same,GI50,OVCAR-8,71.6 µM (inactive)
same,GI50,RPMI-8226,54.5 µM (inactive)
same,GI50,RXF 393,44.9 µM (inactive)
same,GI50,RXF 631,> 100 µM (inactive)
same,GI50,SF-268,> 100 µM (inactive)
same,GI50,SF-295,38.5 µM (inactive)
same,GI50,SF-539,66.8 µM (inactive)
same,GI50,SK-MEL-28,> 100 µM (inactive)
same,GI50,SK-MEL-2,> 100 µM (inactive)
same,GI50,SK-MEL-5,> 100 µM (inactive)
same,GI50,SK-OV-3,> 100 µM (inactive)
same,GI50,SN12C,92.3 µM (inactive)
same,GI50,SNB-75,> 100 µM (inactive)
same,GI50,SNB-78,> 100 µM (inactive)
same,GI50,SR,31.4 µM (inactive)
same,GI50,SW-620,> 100 µM (inactive)
same,GI50,TK-10,> 100 µM (inactive)
same,GI50,U-251,> 100 µM (inactive)
same,GI50,UACC-257,68.7 µM (inactive)
same,GI50,UACC-62,> 100 µM (inactive)
same,GI50,UO-31,72.1 µM (inactive)
